For the test, the target named is T1, CBR1 (Arabidopsis thaliana, UniProt Q9ZNT1).
T1 sequence (Q9ZNT1 1-281): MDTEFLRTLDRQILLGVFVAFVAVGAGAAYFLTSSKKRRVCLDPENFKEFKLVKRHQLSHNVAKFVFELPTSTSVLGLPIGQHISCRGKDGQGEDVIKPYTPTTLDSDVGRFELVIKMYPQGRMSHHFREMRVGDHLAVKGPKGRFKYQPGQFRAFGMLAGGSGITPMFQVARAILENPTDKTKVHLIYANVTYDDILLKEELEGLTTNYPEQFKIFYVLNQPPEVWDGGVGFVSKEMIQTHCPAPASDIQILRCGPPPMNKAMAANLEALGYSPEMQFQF
T1 sequence (O22704 22-121 partner limits assumed): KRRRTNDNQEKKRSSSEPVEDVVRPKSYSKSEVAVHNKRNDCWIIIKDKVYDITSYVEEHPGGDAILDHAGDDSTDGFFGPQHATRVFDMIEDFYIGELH
As to the kind of experiment: reduction of recombinant CB5LP followed by Soret shift. It is filed as biochemical. The note with it: 100 uM NADH, 9 uM CB5LP as electron acceptor, Tris-HCl pH 7.5, room temperature.

For `NC(=O)C1=CN([C@@H]2O[C@H](COP(=O)(O)OP(=O)(O)OC[C@H]3O[C@@H](n4cnc5c(N)ncnc54)[C@H](O)[C@@H]3O)[C@@H](O)[C@H]2O)C=CC1` [NADH], the “reduction of recombinant CB5LP followed by Soret shift” value is listed as “CB5LP was effectively reduced by CBR1 in the presence of NADH”.
